Assays:
[1] = system: NUGC3; test: 4 day proliferation assay (CellTiter-Glo); conditions: Homo sapiens, NUGC-3, 96 h, read-out: 4 day assay GI50
[2] = system: HEC1B; test: CFA 10-14 day clonogenic assay; format: cell-based; conditions: Homo sapiens, HEC-1B
[3] = system: IGROV1; test: 4 day proliferation assay (CellTiter-Glo); conditions: Homo sapiens, IGROV-1, 96 h, read-out: 4 day assay GI50
[4] = system: SW48 xenografts; test: SW48 xenograft efficacy, HRO761, irinotecan and combination; format: in vivo, mouse
Description: All animal studies were conducted in accordance with ethics and procedures covered by permit BS-2275 and BS-1975 issued by the Kantonales Veterinäramt Basel-Stadt and in strict adherence to guidelines of the Eidgenössisches Tierschutzgesetz and the Eidgenössische Tierschutzverordnung, Switzerland. All animal studies were approved by the internal ethics committee. All animals had access to food and water ad libitum and were identified with transponders. They were housed in a specific-pathogen-free facility in IVC racks under a 12 h–12 h light–dark cycle. To establish cell-line-derived xenograft models, 6–7-week-old female athymic nude (Crl:NU(NCr)-Foxn1^nu) or SCID-BEIGE (CB17.Cg-PrkdcscidLystbg-J/Crl) mice from Charles River were engrafted subcutaneously with 5 million tumour cells in HBSS (H6648, Sigma-Aldrich). For SNU-407, Lovo, IM95, RL95.2, Ishikawa and IGROV-1, the cells were concentrated in 50% Matrigel (354234, Corning). Patient-derived xenografts were induced and expanded by transplantation as previously described. […] For the efficacy experiment, mice were randomized into groups (n = 5–6) for a mean tumour size of 100–150 mm^3. […] Blood samples were collected on day 7 and 91. […] Tumour responses are reported with the measures of tumour volumes from the treatment start. […] Animals were randomized (n = 3) and tumour samples were collected at 0, 1, 4, 8 and 24 h on the first day and then collected 4 h after the last treatment on day 3, 8, 10, 14 (including a 24 h timepoint), 17 and 21. Tumours were excised, weighed, either frozen in liquid nitrogen and cryogenic dry pulverized with the CryoPrep system (model CP-02, Covaris) or processed to FFPE after fixation. […] On day 12, blood samples were collected for PK analysis. On the last day (3 h after the last treatment), tumours were excised, weighed, frozen in liquid nitrogen and cryogenic dry pulverized for PD analysis.

## CCc1c(N2CCN(C(=O)c3ncnc(C)c3O)CC2)c(=O)n2nc(C3=CCOCC3)nc2n1CC(=O)Nc1ccc(C(F)(F)F)cc1Cl [HRO761]
[1]
  GI50: ≥ 10 µM
[2]
  GI50: ≥ 10 µM
[3]
  GI50: 2.75 µM
[4]; HRO761 20mg/kg, day 0 post 1st dose
  Mean TVol (mm3): 247.56 mm3
[4]; HRO761 20mg/kg, day 7 post 1st dose
  Mean TVol (mm3): 408.23 mm3
[4]; HRO761 20mg/kg, day 14 post 1st dose
  Mean TVol (mm3): 343.04 mm3
[4]; HRO761 20mg/kg, day 21 post 1st dose
  Mean TVol (mm3): 353.40 mm3
[4]; HRO761 20mg/kg, day 28 post 1st dose
  Mean TVol (mm3): 598.05 mm3
[4]; HRO761 20mg/kg, day 35 post 1st dose
  Mean TVol (mm3): 1006.91 mm3
[4]; HRO761 20mg/kg, day 4 post 1st dose
  Mean TVol (mm3): 324.64 mm3
[4]; HRO761 20mg/kg, day 11 post 1st dose
  Mean TVol (mm3): 389.58 mm3
[4]; HRO761 20mg/kg, day 18 post 1st dose
  Mean TVol (mm3): 304.90 mm3
[4]; HRO761 20mg/kg, day 25 post 1st dose
  Mean TVol (mm3): 411.31 mm3
[4]; HRO761 20mg/kg, day 32 post 1st dose
  Mean TVol (mm3): 799.70 mm3
[4]; HRO761 40mg/kg, day 0 post 1st dose, n=6
  Mean TVol (mm3): 170.74 mm3
[4]; HRO761 40mg/kg, day 3 post 1st dose, n=6
  Mean TVol (mm3): 266.92 mm3
[4]; HRO761 40mg/kg, day 7 post 1st dose, n=6
  Mean TVol (mm3): 238.47 mm3
[4]; HRO761 40mg/kg, day 10 post 1st dose, n=6
  Mean TVol (mm3): 242.34 mm3
[4]; HRO761 40mg/kg, day 14 post 1st dose, n=6
  Mean TVol (mm3): 187.67 mm3
[4]; HRO761 40mg/kg, day 17 post 1st dose, n=6
  Mean TVol (mm3): 156.98 mm3
[4]; HRO761 40mg/kg, day 21 post 1st dose, n=6
  Mean TVol (mm3): 121.57 mm3
[4]; HRO761 40mg/kg, day 24 post 1st dose, n=6
  Mean TVol (mm3): 71.41 mm3
[4]; HRO761 40mg/kg, day 28 post 1st dose, n=6
  Mean TVol (mm3): 43.54 mm3
[4]; HRO761 40mg/kg, day 31 post 1st dose, n=6
  Mean TVol (mm3): 43.20 mm3
[4]; HRO761 40mg/kg, day 35 post 1st dose, n=6
  Mean TVol (mm3): 52.04 mm3
[4]; HRO761 40mg/kg, day 38 post 1st dose, n=6
  Mean TVol (mm3): 63.12 mm3
[4]; HRO761 40mg/kg, day 43 post 1st dose, n=6
  Mean TVol (mm3): 108.93 mm3
[4]; HRO761 40mg/kg, day 46 post 1st dose, n=6
  Mean TVol (mm3): 106.14 mm3
[4]; HRO761 40mg/kg, day 49 post 1st dose, n=6
  Mean TVol (mm3): 165.61 mm3
[4]; HRO761 40mg/kg, day 52 post 1st dose, n=6
  Mean TVol (mm3): 180.62 mm3
[4]; HRO761 40mg/kg, day 56 post 1st dose, n=6
  Mean TVol (mm3): 250.37 mm3
[4]; HRO761 40mg/kg, day 59 post 1st dose, n=6
  Mean TVol (mm3): 307.84 mm3
[4]; HRO761 40mg/kg, day 63 post 1st dose, n=6
  Mean TVol (mm3): 385.98 mm3
[4]; HRO761 40mg/kg, day 67 post 1st dose, n=6
  Mean TVol (mm3): 504.27 mm3
[4]; HRO761 40mg/kg, day 70 post 1st dose, n=6
  Mean TVol (mm3): 521.42 mm3
[4]; HRO761 40mg/kg, day 73 post 1st dose, n=6
  Mean TVol (mm3): 687.64 mm3
